{"source": "EPA's ToxValDB 9.5 (doi:10.2903/j.efsa.2009.1341)", "key": {"Apis mellifera": {"tested_on": "Apis mellifera", "conditions": "acute; duration: 48 hours; inhalation; unspecified; mortality"}, "Canidae": {"tested_on": "Canidae", "conditions": "short-term; duration: 2 weeks; Dog Other"}, "Cyprinodon variegatus": {"tested_on": "Cyprinodon variegatus", "conditions": "acute; duration: 96 hours; mortality"}, "Daphnia magna": {"tested_on": "Daphnia magna", "conditions": "chronic/long-term; duration: 21 days; mortality"}, "Mus musculus": {"tested_on": "Mus musculus", "conditions": "chronic; duration: 2 years; inhalation; histopathology: nonneoplastic"}, "Pimephales promelas": {"tested_on": "Pimephales promelas", "conditions": "chronic/long-term; duration: 33 days; growth"}, "Rattus norvegicus": {"tested_on": "Rattus norvegicus", "conditions": "for LD50: acute"}}}
{"smiles": "ClC=CCCl", "note": "[1,3-Dichloropropene]", "values": [{"measurement": "NOEC", "setting": "Apis mellifera", "result": 115, "unit": "mg/m3"}, {"measurement": "NOAEL", "setting": "Canidae", "result": 20, "unit": "mg/kg-day"}, {"measurement": "LC50", "setting": "Cyprinodon variegatus", "result": 0.87, "unit": "µg/mL"}, {"measurement": "NOEC", "setting": "Daphnia magna", "result": 0.0701, "unit": "mg/L"}, {"measurement": "NOAEL", "setting": "Mus musculus", "result": 1.1, "unit": "mg/kg-day"}, {"measurement": "NOEC", "setting": "Pimephales promelas", "result": 0.032, "unit": "mg/L"}, {"measurement": "LD50", "setting": "Rattus norvegicus; inhalation, mortality", "result": 2.7, "unit": "mg/L"}, {"measurement": "LD50", "setting": "Rattus norvegicus; oral, mortality", "result": 130, "unit": "mg/kg"}, {"measurement": "NOAEL", "setting": "Rattus norvegicus; chronic, duration: 2 years, oral, diet, histopathology: neoplastic", "result": 2.5, "unit": "mg/kg-day"}, {"measurement": "NOAEL", "setting": "Rattus norvegicus; chronic, oral, mortality", "result": 2.5, "unit": "mg/kg-day"}, {"measurement": "NOAEL", "setting": "Rattus norvegicus; reproduction developmental, inhalation, reproduction", "result": "< 0.0908", "unit": "mg/L"}, {"measurement": "NOAEL", "setting": "Rattus norvegicus; subchronic, duration: 13 weeks, inhalation, histopathology: nonneoplastic", "result": 9.72, "unit": "mg/kg-day"}, {"measurement": "NOAEL", "setting": "Rattus norvegicus; subchronic, duration: 90 days, oral, mortality", "result": 5, "unit": "mg/kg-day"}, {"measurement": "LC50", "setting": "Tagia sp.; acute, duration: 14 days, mortality", "result": 55.6, "unit": "mg/kg"}, {"measurement": "NOEC", "setting": "Tagia sp.; chronic/long-term, duration: 56 days, reproduction", "result": 770, "unit": "mg/kg"}]}
